Experimental data taken from patent US12421272B2, “Artificial nucleic acid, production method therefor, and use thereof” (SYSMEX CORPORATION, priority 2019, dated 2025).
Values joined by “and” are separate entries in the source; they are usually repeats but may differ in a detail not shown here. Equal values may be shown once.

Legend:
Assay type in all cases: binding
[1] = tested on: single-stranded RNA (5′-r(AGCAAAAAACGC)-3′; SEQ ID NO: 7); conditions: pH 7.2
[2] = tested on: single-stranded DNA (5′-d(AGCAAAAAACGC)-3′; SEQ ID NO: 6); experiment: Melting temperature (Tm), capability of forming double strand with single-stranded DNA; conditions: sense strand 5′-d(AGCAAAAAACGC)-3′; 100 nM NaCl, 10 mM sodium phosphate buffer (pH 7.2), 4 μM of each strand; 0.5° C./min.
[3] = tested on: Target double-stranded DNA (DNA-1), 203-bp PCR product from pBR322 plasmid; experiment: Strand invasion in the absence of SSB, gel shift assay; conditions: no SSB
Text: (§1) Target double-stranded DNA molecules are as follows. • (DNA-1) A 203-bp PCR product produced using pBR322 plasmid (commercially available product) as a template (SEQ ID NOs: 23 and 24). • (DNA-2) A 203-bp PCR product produced using artificial gene T1825G (commercially available product) based on pBR322 plasmid as a template. • (DNA-3) A 203-bp PCR product produced using artificial gene T1825C (commercially available product) based on pBR322 plasmid as a template. • (DNA-4) A 203-bp PCR product produced using artificial gene T1825A (commercially available product) based on pBR322 plasmid as a template.
The reaction was carried out using a thermal cycler (StepOnePlus, Applied Biosystems), in which each of the sample solutions was cooled from 94° C. to 54° C. at a cooling rate of 2° C./30 seconds or was kept at 37° C. for a certain period (24 hours, 48 hours).
The condition that the sample solution was cooled from 94° C. to 54° C. at a cooling rate of 2° C./30 seconds was a condition where a target double-stranded DNA (in this case, a 203-bp PCR product) can be converted to a single strand by the action of a heat energy and strand invasion can be caused by cooling slowly. Therefore, the condition simulated the use in a gene analysis technique.
The condition that temperature is kept at 37° C. for a certain period simulated an in vivo reaction, and therefore simulated the use in a nucleic acid medicine or genome edition.
The same procedures as in the step (3) above were carried out. In this experiment, only the staining using GelGreen (fluorescence staining) was carried out.
The reaction was carried out using a thermal cycler (StepOnePlus, Applied Biosystems), in which each of the sample solutions was cooled from 94° C. to 54° C. at a cooling rate of 2° C./30 seconds.

[4] = tested on: Target double-stranded DNA (DNA-1), 203-bp PCR product from pBR322 plasmid; experiment: Strand invasion in the presence of SSB, gel shift assay; conditions: SSB 6 μM, oligonucleotide 200 nM, DNA-1 30 nM, 37° C. for 120, 60 or 30 minutes
Text: as §1
Each of the sample solutions was reacted at 37° C. for 120 minutes, 60 minutes, or 30 minutes using a thermal cycler (StepOnePlus, Applied Biosystems).
After the completion of the reaction, two gels respectively having the sample solutions applied thereon prepared, and PAGE (Poly-Acrylamide Gel Electrophoresis) was carried out on the gels simultaneously under the following conditions. […]
After the completion of the electrophoresis, one of the gel was subjected to fluorescence staining (GelGreen Nucleic Acid Stain 10,000×, Biotium) for staining a nucleic acid, and the other gel was subjected to silver staining (EzStain Silver, ATTO corporation) for staining a nucleic acid and a protein simultaneously. […]

Substance	Tm [1]	Tm [2]	occurrence of strand invasion ([3]; oligonucleotide 100 nM (3.3 equivalents), DNA-1 30 nM, cooled from 94° C. to 54° C. or left at 37° C.)	occurrence of strand invasion (comparison of strand invasion functionality) ([3]; oligonucleotide 100 nM, DNA-1 30 nM, cooled from 94° C. to 54° C. or kept at 37° C. (24 hours, 48 hours))	occurrence of strand invasion into the sequence for wild-type ([3]; oligonucleotide 200 nM, DNA-1 15 nM, cooled from 94° C. to 54° C. or kept at 37° C. (24 hours, 48 hours))	occurrence of strand invasion [4]
5′-d(GCGTTTTTTGCT)-3′: unmodified DNA antisense strand, SEQ ID NO: 5 (unmodified DNA)	48 °C and 52 °C	52 °C	–	–	–	–
PNA20: PNA 20-mer H-(Lys)ggcatgttcatcatcagtaa(Lys)-NH2 (GGCATGTTCATCATCAGTAA; all peptide nucleic acid (PNA); Lys residue at N- and C-terminus, C-terminal amide)	–	–	the occurrence of strand invasion was not confirmed	the occurrence of strand invasion was not observed	did not cause strand invasion	observed
